The numbers were not newly measured in publication PMC6631257, which cites them from elsewhere.

The test system of the data set is CYP2D6.
Take `COc1ccc([C@@H]2Sc3ccccc3N(CCN(C)C)C(=O)[C@@H]2OC(C)=O)cc1` [diltiazem]: the CYP2D6 inhibitor strength entry is recorded as “weak inhibitor”.

As to `CNCCC(Oc1ccc(C(F)(F)F)cc1)c1ccccc1` (stereo not drawn) [fluoxetine], the CYP2D6 inhibitor strength result is reported as “strong”. For the molecule `Fc1ccc([C@@H]2CCNC[C@H]2COc2ccc3c(c2)OCO3)cc1` [paroxetine], the CYP2D6 inhibitor strength result is “strong”.
